The record followed here is article PMC3951269 (Nature, 2013).

Experiment [1] deals with T1, CPTP (GLTPD1) (Homo sapiens, UniProt Q5TA50).
T1 sequence (Q5TA50 1-214): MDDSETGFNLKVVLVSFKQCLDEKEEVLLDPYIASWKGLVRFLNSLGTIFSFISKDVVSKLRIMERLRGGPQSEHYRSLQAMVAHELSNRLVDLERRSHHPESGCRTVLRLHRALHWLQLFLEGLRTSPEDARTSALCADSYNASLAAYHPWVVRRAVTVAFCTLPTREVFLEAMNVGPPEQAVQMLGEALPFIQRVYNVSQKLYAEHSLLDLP
In words: FRET lipid transfer between POPC vesicles. The note with it: 37 °C; labelled compound. Format: biochemical.

In experiment [2] the target is T1, CPTP (GLTPD1). In words: X-ray crystal structure. Format: binding. The note with it: sphingosine-in mode site as C1P.

On to `CCCCCCCCCCCCC/C=C/[C@@H](O)[C@H](COP(=O)(O)O)NC(=O)CCCCCCCCC/C=C/c1c2ccccc2cc2ccccc12` [AV-C1P, anthrylvinyl-C1P], for which the transfer rate at CPTP (GLTPD1) [1] is given as ~ 4 C1P molecules/min/protein.
Take `CCCCCCCCCCCC(=O)OC[C@H](COP(=O)(O)O)OC(=O)CCCCCCCCCCC` [di12:0-PA]: the X-ray crystal structure entry on CPTP (GLTPD1) [2] is given as “PA occupies the same binding site”.
